Assay results as given in paper PMC3569073 (Journal of medicinal chemistry, 2013).
Several values for one entry are separate records, joined by “and”; a condition that tells them apart may be missing. Identical values can stand only once. Like-named read-outs stand apart in the source and are kept apart here.

Assays:
[1] = target: SARS-CoV 3CLpro (Severe acute respiratory syndrome coronavirus, UniProt P0C6X7); assay: biochemical; format: biochemical; details: for inhibition at 100 µM: read-out: 3CLpro inhibition level
[2] = target: SARS 3CLpro; details: cited from earlier work
[3] = tested on: SARS-CoV; details: cited from earlier work
[4] = physchem
[5] = tested on: 68 discrete GPCRs, ion channels and transporters; format: binding; details: 10 μM
[6] = tested on: SARS-CoV infected Vero cells; details: cited from earlier work
[7] = target: T1, 3CLpro enzyme from the human coronavirus HKU1 (Human coronavirus HKU1, UniProt P0C6X2); format: biochemical; details: 100 μM
T1 sequence (P0C6X2 3335-3637 limits assumed): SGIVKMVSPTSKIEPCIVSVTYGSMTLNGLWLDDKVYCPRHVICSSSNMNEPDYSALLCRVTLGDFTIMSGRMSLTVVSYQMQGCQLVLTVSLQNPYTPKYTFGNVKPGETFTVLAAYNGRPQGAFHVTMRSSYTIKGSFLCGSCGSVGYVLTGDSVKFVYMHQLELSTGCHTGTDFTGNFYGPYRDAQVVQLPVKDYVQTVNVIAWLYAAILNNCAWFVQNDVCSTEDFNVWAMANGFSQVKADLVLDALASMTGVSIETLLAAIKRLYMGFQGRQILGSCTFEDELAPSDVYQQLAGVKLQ

[8] = target: T2, 3CLpro enzyme from the mouse coronavirus MHV (Murine coronavirus, UniProt P0C6X9); format: biochemical; details: 100 μM
T2 sequence (P0C6X9 3334-3635 limits assumed): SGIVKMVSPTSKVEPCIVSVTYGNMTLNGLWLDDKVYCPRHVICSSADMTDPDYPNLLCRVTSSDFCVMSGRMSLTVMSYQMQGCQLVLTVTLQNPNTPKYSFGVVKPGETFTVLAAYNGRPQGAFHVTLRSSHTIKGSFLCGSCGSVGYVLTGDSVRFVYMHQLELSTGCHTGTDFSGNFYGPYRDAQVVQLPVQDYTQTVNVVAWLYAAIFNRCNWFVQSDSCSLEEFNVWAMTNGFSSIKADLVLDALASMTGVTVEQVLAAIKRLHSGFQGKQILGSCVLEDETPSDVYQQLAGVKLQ

Q: For `CC(C)(C)NC(=O)C(c1cnccn1)N(C(=O)c1ccco1)c1ccc(C(C)(C)C)cc1` (stereo not shown) [Compound 54], which “3CLpro inhibition, SAR result in words” value [1] is on record?
A: well tolerated

Q: For `CC(C)(C)NC(=O)C(c1cccnc1)N(C(=O)c1c[nH]cn1)c1ccc(C(C)(C)C)cc1` (stereo not shown) [Compound 31, N-(4-(tert-butyl)phenyl)-N-(2-(tert-butylamino)-2-oxo-1-(pyridin-3-yl)ethyl)-1H-imidazole-4-carboxamide], which “3CLpro inhibition, SAR result in words” value [1] is on record?
A: nearly equipotent

Q: Which “3CLpro inhibition, SAR result in words” value [1] does the source give for `CC(C)(C)NC(=O)C(c1cccnc1)N(C(=O)c1ccc[nH]1)c1ccc(C(C)(C)C)cc1` (stereo not shown) [Compound 37] here?
A: completely inactive

Q: Which inhibition at 100 µM [1] does the source give for `CC(C)(C)NC(=O)C(c1cccnc1)N(C(=O)c1ccco1)c1ccc(C(C)(C)C)cc1` (stereo not shown) [Compound 16] here?
A: > 50%

Q: With `CC(C)(C)NC(=O)C(c1ccnnc1)N(C(=O)c1ccco1)c1ccc(C(C)(C)C)cc1` (stereo not shown) [Compound 53] as the compound, how does the “3CLpro inhibition, SAR result in words” value [1] read?
A: well tolerated

Q: For `CC(C)(C)NC(=O)C(c1cccnc1)N(C(=O)c1ccco1)c1ccc(F)cc1` (stereo not shown) [Compound 19, N-(2-(tert-butylamino)-2-oxo-1-(pyridin-3-yl)ethyl)-N-(4-fluorophenyl)furan-2-carboxamide], which “3CLpro inhibition, SAR result in words” value [1] is on record?
A: deleterious for inhibition

Q: What does the source list for `CC(C)(C)NC(=O)C(c1cccnc1)N(C(=O)c1cccs1)c1ccc(C(C)(C)C)cc1` (stereo not shown) [Compound 27, N-(4-(tert-butyl)phenyl)-N-(2-(tert-butylamino)-2-oxo-1-(pyridin-3-yl)ethyl)thiophene-2-carboxamide]?
A: 3CLpro inhibition, SAR result in words [1]: weakly tolerated; fold loss of 3CLpro activity relative to furan 16 [1]: 10 fold

Q: Which “3CLpro inhibition, SAR result in words” value [1] does the source give for `CC(C)(C)NC(=O)C(c1cccnc1)N(C(=O)c1ccco1)C1CC1` (stereo not shown) [Compound 18, N-(2-(tert-butylamino)-2-oxo-1-(pyridin-3-yl)ethyl)-N-cyclopropylfuran-2-carboxamide] here?
A: deleterious for inhibition

Q: Which “3CLpro inhibition, SAR result in words” value [1] does the source give for `Cc1ccc(C(=O)N(c2ccc(C(C)(C)C)cc2)C(C(=O)NC(C)(C)C)c2cccnc2)o1` (stereo not shown) [Compound 21] here?
A: negatively impacted activity

Q: For `Cc1ccoc1C(=O)N(c1ccc(C(C)(C)C)cc1)C(C(=O)NC(C)(C)C)c1cccnc1` (stereo not shown) [Compound 26], which “3CLpro inhibition, SAR result in words” value [1] is on record?
A: negatively impacted activity

Q: For `CC[C@H](NC(=O)[C@@H](NC(=O)OCc1ccccc1)[C@@H](C)OC(C)(C)C)C(=O)N[C@H](C=O)C[C@@H]1CCNC1=O` [TG-0205221], which Ki [2] is on record?
A: 52 nM

Q: What about the EC50 [3] of the same compound?
A: 600 nM

Q: For `CC(C)(C)NC(=O)C(c1ccsc1)N(C(=O)c1ccco1)c1ccc(C(C)(C)C)cc1` (stereo not shown) [Compound 20, N-(4-(tert-butyl)phenyl)-N-(2-(tert-butylamino)-2-oxo-1-(thiophen-3-yl)ethyl)furan-2-carboxamide], which “3CLpro inhibition, SAR result in words” value [1] is on record?
A: complete loss of inhibition activity

Q: Which results are given for `CC(C)(C)NC(=O)[C@@H](c1cccnc1)N(C(=O)c1ccco1)c1ccc(C(C)(C)C)cc1` [16-(R), (R)-N-(4-(tert-butyl)phenyl)-N-(2-(tert-butylamino)-2-oxo-1-(pyridin-3-yl)ethyl)furan-2-carboxamide]?
A: solubility [4]: ≤ 95 µg/mL and ≤ 219 µM; activity in lead-profiling screen [5]: < 50%

Q: With `Cc1ccc(C(C(=O)NC(C)(C)C)N(C(=O)c2ccco2)c2ccc(C(C)(C)C)cc2)cn1` (stereo not shown) [Compound 55, N-(4-(tert-butyl)phenyl)-N-(2-(tert-butylamino)-1-(6-methylpyridin-3-yl)-2-oxoethyl)furan-2-carboxamide] as the compound, how does the “3CLpro inhibition, SAR result in words” value [1] read?
A: not permitted

Q: For `Cn1cnc(C(=O)N(c2ccc(C(C)(C)C)cc2)C(C(=O)NC(C)(C)C)c2cccnc2)c1` (stereo not shown) [Compound 52, N-(4-(tert-butyl)phenyl)-N-(2-(tert-butylamino)-2-oxo-1-(pyridin-3-yl)ethyl)-1-methyl-1H-imidazole-4-carboxamide], which “fold loss of 3CLpro activity relative to imidazole 31” value [1] is on record?
A: > 10 fold

Q: For `CC(C)c1ccc(N(C(=O)c2ccco2)C(C(=O)NC(C)(C)C)c2cccnc2)cc1` (stereo not shown) [Compound 17, N-(2-(tert-butylamino)-2-oxo-1-(pyridin-3-yl)ethyl)-N-(4-isopropylphenyl)furan-2-carboxamide], which IC50 ([1]; read-out: 3CLpro IC50) is on record?
A: < 50000 nM

Q: What about the inhibition at 100 µM [1] of the same compound?
A: > 50%

Q: With `CCC(C)c1ccc(N(C(=O)c2ccco2)C(C(=O)NC2CCCC2)c2cccnc2)cc1` (stereo not shown) [Compound 14] as the compound, how does the IC50 [1] read?
A: < 10000 nM

Q: With `CC(C)(C)NC(=O)C(c1cccnc1)N(C(=O)c1ccc(Cl)o1)c1ccc(C(C)(C)C)cc1` (stereo not shown) [Compound 50] as the compound, how does the “3CLpro inhibition, SAR result in words” value [1] read?
A: nearly equipotent to 16

Q: For `CC(C)(C)NC(=O)C(c1cccnc1)N(C(=O)Cc1cnc[nH]1)c1ccc(C(C)(C)C)cc1` (stereo not shown) [Compound 51], which “3CLpro inhibition, SAR result in words” value [1] is on record?
A: deleterious for inhibition

Q: With `CC(C)(C)NC(=O)C(c1cccnc1)N(C(=O)C1CCCO1)c1ccc(C(C)(C)C)cc1` (stereo not shown) [Compound 32] as the compound, how does the IC50 [1] read?
A: > 50000 nM

Q: And the “fold loss of 3CLpro activity relative to furan 16” value [1]?
A: > 10 fold

Q: For `CN(C)CCCSc1ccccc1NC(=O)/C=C/c1ccccc1` [cinanserin], which “inhibition of SARS-CoV 3CLpro” value ([1]; 100 μM) is on record?
A: no inhibition

Q: What about the “inhibition of authentic SARS-CoV 3CLpro” value ([1]; 100 μM) of the same compound?
A: no inhibition

Q: And the “reduction of viral RNA in cell culture media” value [6]?
A: 3 log

Q: And the “inhibition of HKU1 3CLpro” value [7]?
A: no inhibition

Q: And the “inhibition of MHV 3CLpro” value [8]?
A: no inhibition

Q: Which “3CLpro inhibition, SAR result in words” value [1] does the source give for `CC(C)(C)NC(=O)C(c1ccncc1)N(C(=O)c1ccco1)c1ccc(C(C)(C)C)cc1` (stereo not shown) [Compound 56] here?
A: weak inhibitors
